Source: the NIST ThermoML archive (doi:10.1021/je034188o)

Assay: cn = amount concentration of the nth substance listed, in mol/dm3
Settings: 101 kPa, Liquid

C1COCCOCCOCCOCCOCCO1 [1,4,7,10,13,16-hexaoxacyclooctadecane] + ClC(Cl)(Cl)Cl
Settings | mass density [kg/m3]
293.15 K, c1 = 0.06567 | 1586.34
293.15 K, c1 = 0.09829 | 1582.87
293.15 K, c1 = 0.1283 | 1579.71
293.15 K, c1 = 0.1856 | 1573.71
293.15 K, c1 = 0.2464 | 1567.44
293.15 K, c1 = 0.3256 | 1559.42
298.15 K, c1 = 0.06528 | 1576.94
298.15 K, c1 = 0.09771 | 1573.63
298.15 K, c1 = 0.1275 | 1570.6
298.15 K, c1 = 0.1846 | 1564.86
298.15 K, c1 = 0.2451 | 1558.88
298.15 K, c1 = 0.3239 | 1551.22
303.15 K, c1 = 0.0649 | 1567.64
303.15 K, c1 = 0.09714 | 1564.39
303.15 K, c1 = 0.1268 | 1561.42
303.15 K, c1 = 0.1835 | 1555.75
303.15 K, c1 = 0.2436 | 1549.77
303.15 K, c1 = 0.322 | 1542.04
308.15 K, c1 = 0.06453 | 1558.35
308.15 K, c1 = 0.09662 | 1555.25
308.15 K, c1 = 0.1261 | 1552.41
308.15 K, c1 = 0.1827 | 1547.01
308.15 K, c1 = 0.2426 | 1541.36
308.15 K, c1 = 0.3209 | 1534.08

C1COCCOCCOCCOCCOCCO1 [1,4,7,10,13,16-hexaoxacyclooctadecane] + O
Settings | mass density [kg/m3]
293.15 K, c1 = 0.0406 | 999.92
293.15 K, c1 = 0.07841 | 1001.5
293.15 K, c1 = 0.1209 | 1003.25
293.15 K, c1 = 0.1782 | 1005.57
293.15 K, c1 = 0.2079 | 1006.75
293.15 K, c1 = 0.2528 | 1008.52
293.15 K, c1 = 0.3203 | 1011.12
298.15 K, c1 = 0.04054 | 998.67
298.15 K, c1 = 0.07831 | 1000.21
298.15 K, c1 = 0.1207 | 1001.91
298.15 K, c1 = 0.1779 | 1004.16
298.15 K, c1 = 0.2076 | 1005.32
298.15 K, c1 = 0.2524 | 1007.03
298.15 K, c1 = 0.3198 | 1009.57
303.15 K, c1 = 0.04049 | 997.39
303.15 K, c1 = 0.0782 | 998.84
303.15 K, c1 = 0.1205 | 1000.51
303.15 K, c1 = 0.1777 | 1002.72
303.15 K, c1 = 0.2073 | 1003.84
303.15 K, c1 = 0.252 | 1005.51
303.15 K, c1 = 0.3193 | 1008
308.15 K, c1 = 0.04042 | 995.61
308.15 K, c1 = 0.07806 | 997.09
308.15 K, c1 = 0.1203 | 998.72
308.15 K, c1 = 0.1774 | 1000.89
308.15 K, c1 = 0.2069 | 1001.99
308.15 K, c1 = 0.2515 | 1003.65
308.15 K, c1 = 0.3187 | 1006.08

ClC(Cl)(Cl)Cl [tetrachloromethane] + C1COCCOCCOCCOCCOCCO1
c2 = 0
Settings | mass density [kg/m3]
293.15 K | 1593.39
298.15 K | 1583.71
303.15 K | 1574.2
308.15 K | 1564.65
